In ChEMBL document CHEMBL1123713, “Synthesis and calcium channel antagonist activity of dialkyl 4- (dihydropyridinyl)-1,4-dihydro-2,6-dimethyl-3,5-pyridinecarboxylates” (J Med Chem, 1987):

organism: Cavia porcellus; assay: Negative logarithm antagonist concentration causing 50% inhibition of tonic CD response in the guinea pig ileal longitudinal smooth muscle preparation; type: functional, Muscle tissue; conditions: not given
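Throughout, for ID50: blockade of Ca2+-dependent contraction driven by muscarinic receptors in longitudinal smooth muscle strips of guinea pig ileum.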

SMILES | -Log ID50
COC(=O)C1=C(C)N=C(C)/C(=C(/O)OC)C1C1=CC=CN(C(=O)Oc2ccccc2)C1 (stereo not given) | 5.43
CC1=NC(C)=C(C(=O)OC(C)C)C(C2=CC=CN(C(=O)Oc3ccccc3)C2)/C1=C(\O)OC(C)C (stereo not given) | 5.78
COC(=O)C1=C(C)N=C(C)/C(=C(/O)OC)C1C1=CC=CN(C(=O)OC)C1 (stereo not given) | 6.23
COC(=O)C1=C(C)N=C(C)/C(=C(/O)OC)C1C1=CC=CN(C(=O)OC(C)(C)C)C1 (stereo not given) | 5.24

biological target: Voltage-gated L-type calcium channel (Homo sapiens, UniProt Q13936+Q13698+Q01668+O60840); assay: Negative log antagonist concentration causing 50% displacement of [3H]nifedipine from guinea pig ileal smooth muscle membrane.; type: tissue-based, Cavia porcellus, Muscle tissue; conditions: target entry is the homologue from another species

SMILES | -Log KD50
COC(=O)C1=C(C)NC(C)=C(C(=O)OC)C1c1ccccc1[N+](=O)[O-] [NIFEDIPINE] | 9.08

biological target: Muscarinic acetylcholine receptor (Homo sapiens) (UniProt P20309+P08173+P11229+P08172+P08912); conditions: Cavia porcellus
Description: Inhibition of muscarinic receptor mediated [Ca2+] dependent contraction of guinea pig ileal longitudinal smooth muscle.

ID50 | SMILES
180 nM | CCOC(=O)C1=C(C)N=C(C)/C(=C(/O)OCC)C1C1=CC=CN(C(=O)OC)C1 (stereo not given)
51600 nM | COC(=O)N1C=CC=C(C2C(C#N)=C(C)N=C(C)/C2=C(/O)OC)C1 (stereo not given)
3690 nM | COC(=O)C1=C(C)N=C(C)/C(=C(/O)OC)C1C1=CC=CN(C(=O)Oc2ccccc2)C1 (stereo not given)
237 nM | CO/C(O)=C1\C(C)=NC(C)=C(C(=O)OC(C)C)C1C1=CC=CN(C(=O)OC(C)(C)C)C1 (stereo not given)
158 nM | COC(=O)N1C=CC=C(C2C(C(=O)OC(C)C)=C(C)N=C(C)/C2=C(/O)OC)C1 (stereo not given)
128 nM | CO/C(O)=C1\C(C)=NC(C)=C(C(=O)OCC(C)C)C1C1=CC=CN(C(=O)OC(C)(C)C)C1 (stereo not given)
131 nM | COC(=O)N1C=CC=C(C2C(C(=O)OC(C)C)=C(C)N=C(C)/C2=C(/O)OC(C)C)C1 (stereo not given)
45 nM | CO/C(O)=C1\C(C)=NC(C)=C(C(=O)OCC(C)C)C1C1=CC=CN(C(=O)Oc2ccccc2)C1 (stereo not given)
33900 nM | COC(=O)N1C=CC=C(C2C(C#N)=C(C)NC(C)=C2C#N)C1
900 nM | CO/C(O)=C1\C(C)=NC(C)=C(C(=O)OC(C)C)C1C1=CC=CN(C(=O)Oc2ccccc2)C1 (stereo not given)
589 nM | COC(=O)C1=C(C)N=C(C)/C(=C(/O)OC)C1C1=CC=CN(C(=O)OC)C1 (stereo not given)
5770 nM | COC(=O)C1=C(C)N=C(C)/C(=C(/O)OC)C1C1=CC=CN(C(=O)OC(C)(C)C)C1 (stereo not given)
31 nM | COC(=O)N1C=CC=C(C2C(C(=O)OCC(C)C)=C(C)N=C(C)/C2=C(/O)OC)C1 (stereo not given)
7470 nM | COC(=O)C1=C(C)N=C(C)/C(=C(/O)OC)C1C1=CCN(C(=O)OC)C=C1 (stereo not given)
771 nM | COC(=O)N1C=CC=C(C2C(C(=O)OCC(C)C)=C(C)N=C(C)/C2=C(/O)OCC(C)C)C1 (stereo not given)

The remaining lines, values behind:

SMILES | ID50
CO/C(O)=C1\C(C)=NC(C)=C(C(=O)OCC(C)C)C1C1=CCN(C(=O)Oc2ccccc2)C=C1 (stereo not given) | 81000 nM
CC1=NC(C)=C(C(=O)OC(C)C)C(C2=CC=CN(C(=O)OC(C)(C)C)C2)/C1=C(\O)OC(C)C (stereo not given) | 114 nM
COC(=O)N1C=CC(C2C(C(=O)OCC(C)C)=C(C)N=C(C)/C2=C(/O)OC)=CC1 (stereo not given) | 1760 nM
COC(=O)N1C=CC(C2C(C#N)=C(C)NC(C)=C2C#N)=CC1 | 67500 nM
COC(=O)N1C=CC(C2C(C(=O)OC(C)C)=C(C)N=C(C)/C2=C(/O)OC(C)C)=CC1 (stereo not given) | 1010 nM
CO/C(O)=C1\C(C)=NC(C)=C(C(=O)OCC(C)C)C1C1=CCN(C(=O)OC(C)(C)C)C=C1 (stereo not given) | 1180 nM
COC(=O)N1C=CC(C2C(C(=O)OCC(C)C)=C(C)N=C(C)/C2=C(/O)OCC(C)C)=CC1 (stereo not given) | 1720 nM
CC1=NC(C)=C(C(=O)OCC(C)C)C(C2=CCN(C(=O)Oc3ccccc3)C=C2)/C1=C(\O)OCC(C)C (stereo not given) | 510 nM
CC1=NC(C)=C(C(=O)OC(C)C)C(C2=CC=CN(C(=O)Oc3ccccc3)C2)/C1=C(\O)OC(C)C (stereo not given) | 1670 nM
CCOC(=O)C1=C(C)N=C(C)/C(=C(/O)OCC)C1C1=CC=CN(C(=O)OC(C)(C)C)C1 (stereo not given) | 672 nM
CCOC(=O)C1=C(C)N=C(C)/C(=C(/O)OCC)C1C1=CC=CN(C(=O)Oc2ccccc2)C1 (stereo not given) | 865 nM
CC1=NC(C)=C(C(=O)OCC(C)C)C(C2=CCN(C(=O)OC(C)(C)C)C=C2)/C1=C(\O)OCC(C)C (stereo not given) | 2030 nM
CCOC(=O)C1=C(C)N=C(C)/C(=C(/O)OCC)C1C1=CCN(C(=O)OC)C=C1 (stereo not given) | 2430 nM
CC1=NC(C)=C(C(=O)OCC(C)C)C(C2=CC=CN(C(=O)OC(C)(C)C)C2)/C1=C(\O)OCC(C)C (stereo not given) | 3420 nM
CC1=NC(C)=C(C(=O)OCC(C)C)C(C2=CC=CN(C(=O)Oc3ccccc3)C2)/C1=C(\O)OCC(C)C (stereo not given) | 6460 nM
